Tested on: Rhipicephalus microplus ticks
Experiment: Efficacy of injectable formulation against Rhipicephalus (Boophilus) microplus ticks on cattle
Type: in vivo
Settings: for Average % Efficacy (Tick Count): vs untreated control; for efficacy and duration of activity against Rhipicephalus microplus compared with other isoxazoline compounds / speed of onset of efficacy against Rhipicephalus microplus compared with other isoxazoline compounds: injectable composition, compared with afoxolaner, (If) or (S)-If
Protocol: The efficacy of long-acting injectable compositions of the invention comprising the compounds of formula (Ie) and (S)-Ie, against Rhipicephalus microplus ticks on cattle was determined against an untreated control group. The efficacy of compositions comprising the compounds (Ie) and (S)-e were also compared with injectable compositions comprising afoxolaner (formula Ia, 4-[5-[3-chloro-5-(trifluoromethyl)phenyl]-4,5-dihydro-5-(trifluoromethyl)-3-isoxazolyl]-N-[2-oxo-2-[(2,2,2-trifluoroethyl)amino]ethyl]-1-naphthalanecarboxamide), and comparative compounds of formulae (If) and (S)-If shown below.
Each compound was formulated in an injectable composition at a concentration of 10% (w/v) in a carrier comprising 8% (w/v) ethanol and Q.S. with polyethylene glycol 400. The racemic compounds afoxolaner and (If) were dosed at 1.0 mg/kg body weight and the (S)-enantiomers ((S)-Ie and (S)-If) were dosed at 0.5 mg/kg body weight. Six healthy head of cattle were used in each study group. Cattle in Group 1 were untreated (control). Cattle in Groups 2, 3, 4, 5 and 6 were treated on Day 0 subcutaneously with injectable compositions comprising the compounds of formula Ie, (S)-If, (S)-Ie, afoxolaner (Ia) and (If), respectively. Several weeks before treatment, cattle were infested three times a week with approximately 2500 Rhipicephalus microplus larvae to establish ongoing infestations. Each animal was challenged by infestation with approximately 5000 R. microplus larvae on Days 7 and 21 and every 14 days thereafter. Ticks dropping from each animal in the previous 24 hours were collected daily and counted from Day 1 until the end of the study.

[1] = Day 5, 1.0 mg/kg subcutaneous on Day 0 (racemic compounds)
[2] = Day 10, 1.0 mg/kg subcutaneous on Day 0 (racemic compounds)
[3] = Day 20, 1.0 mg/kg subcutaneous on Day 0 (racemic compounds)
[4] = Day 30, 1.0 mg/kg subcutaneous on Day 0 (racemic compounds)
[5] = Day 40, 1.0 mg/kg subcutaneous on Day 0 (racemic compounds)
[6] = Day 49, 1.0 mg/kg subcutaneous on Day 0 (racemic compounds)
[7] = Day 55, 1.0 mg/kg subcutaneous on Day 0 (racemic compounds)
[8] = Day 60, 1.0 mg/kg subcutaneous on Day 0 (racemic compounds)
[9] = Day 65, 1.0 mg/kg subcutaneous on Day 0 (racemic compounds)
[10] = Day 70, 1.0 mg/kg subcutaneous on Day 0 (racemic compounds)
[11] = Day 75, 1.0 mg/kg subcutaneous on Day 0 (racemic compounds)
[12] = listed as formula (Ic) wherein X^1 is chloro, X^2 is fluoro and X^3 is CF3
[13] = listed as formula (Id) in which Y is Y-2, Q is —C(O)NHCH2C(O)NHCH2CF3, X^1 is fluoro and X

| Structure (SMILES) | Average % Efficacy (Tick Count) [1] | Average % Efficacy (Tick Count) [2] | Average % Efficacy (Tick Count) [3] | Average % Efficacy (Tick Count) [4] | Average % Efficacy (Tick Count) [5] | Average % Efficacy (Tick Count) [6] | Average % Efficacy (Tick Count) [7] | Average % Efficacy (Tick Count) [8] | Average % Efficacy (Tick Count) [9] | Average % Efficacy (Tick Count) [10] | Average % Efficacy (Tick Count) [11] | also measured |
| --- | --- | --- | --- | --- | --- | --- | --- | --- | --- | --- | --- | --- |
| O=C(CNC(=O)c1ccc(C2=NO[C@@](c3cc(Cl)cc(Cl)c3)(C(F)(F)F)C2)c2ccccc12)NCC(F)(F)F [(S)-If, reference compound] |  |  |  |  |  |  |  |  |  |  |  | Average % Efficacy (Tick Count) (Day 5, 0.5 mg/kg subcutaneous on Day 0 ((S)-enantiomers)): 39%; Average % Efficacy (Tick Count) (Day 10, 0.5 mg/kg subcutaneous on Day 0 ((S)-enantiomers)): 27%; Average % Efficacy (Tick Count) (Day 20, 0.5 mg/kg subcutaneous on Day 0 ((S)-enantiomers)): 33%; Average % Efficacy (Tick Count) (Day 30, 0.5 mg/kg subcutaneous on Day 0 ((S)-enantiomers)): 86%; Average % Efficacy (Tick Count) (Day 40, 0.5 mg/kg subcutaneous on Day 0 ((S)-enantiomers)): 100%; Average % Efficacy (Tick Count) (Day 49, 0.5 mg/kg subcutaneous on Day 0 ((S)-enantiomers)): 36%; Average % Efficacy (Tick Count) (Day 55, 0.5 mg/kg subcutaneous on Day 0 ((S)-enantiomers)): 0% |
| O=C(CNC(=O)c1ccc(C2=NOC(c3cc(Cl)cc(C(F)(F)F)c3)(C(F)(F)F)C2)c2ccccc12)NCC(F)(F)F (racemic) [afoxolaner, 4-[5-[3-chloro-5-(trifluoromethyl)phenyl]-4,5-dihydro-5-(trifluoromethyl)-3-isoxazolyl]-N-[2-oxo-2-[(2,2,2-trifluoroethyl)amino]ethyl]-1-naphthalanecarboxamide, reference compound] | 38% | 48% | 77% | 99% | 100% | 94% | 73% | 71% | 48% | 3% | 0% |  |
| O=C(CNC(=O)c1ccc(C2=NOC(c3cc(Cl)c(F)c(C(F)(F)F)c3)(C(F)(F)F)C2)c2ccccc12)NCC(F)(F)F (racemic) [Ie] | 69% | 100% | 100% | 100% | 100% | 100% | 100% | 100% | 100% | 100% | 100% | Average % Efficacy (Tick Count) (Day 80, 1.0 mg/kg subcutaneous on Day 0 (racemic compounds)): 100%; Average % Efficacy (Tick Count) (Day 85, 1.0 mg/kg subcutaneous on Day 0 (racemic compounds)): 100%; Average % Efficacy (Tick Count) (Day 88, 1.0 mg/kg subcutaneous on Day 0 (racemic compounds)): 100%; Average % Efficacy (Tick Count) (Day 95, 1.0 mg/kg subcutaneous on Day 0 (racemic compounds)): 100%; Average % Efficacy (Tick Count) (Day 100, 1.0 mg/kg subcutaneous on Day 0 (racemic compounds)): 100%; Average % Efficacy (Tick Count) (Day 105, 1.0 mg/kg subcutaneous on Day 0 (racemic compounds)): 93%; Average % Efficacy (Tick Count) (Day 110, 1.0 mg/kg subcutaneous on Day 0 (racemic compounds)): 82%; efficacy and duration of activity against Rhipicephalus microplus compared with other isoxazoline compounds: surprising and unexpected efficacy; speed of onset of efficacy against Rhipicephalus microplus compared with other isoxazoline compounds (listed as Je): faster-acting; efficacy and duration of activity against Rhipicephalus microplus compared with other isoxazoline compounds [12]: surprisingly long-lasting and excellent efficacy; speed of onset of efficacy against Rhipicephalus microplus compared with other isoxazoline compounds [12]: quick onset; efficacy and duration of activity against Rhipicephalus microplus compared with other isoxazoline compounds [13]: surprisingly improved duration of activity; speed of onset of efficacy against Rhipicephalus microplus compared with other isoxazoline compounds [13]: surprisingly improved fast-acting efficacy |
| O=C(CNC(=O)c1ccc(C2=NOC(c3cc(Cl)cc(Cl)c3)(C(F)(F)F)C2)c2ccccc12)NCC(F)(F)F (stereo not shown) [If, reference compound] | 70% | 62% | 57% | 84% | 100% | 70% | 14% |  |  |  |  |  |
